Test results reported in article PMC11426312 (Biochemistry, 2024).

Key:
[1] = biological target: T1, AbHMPK (hydroxymethyl pyrimidine kinase / phosphomethylpyrimidine kinase) (Acinetobacter baumannii, UniProt A0A0J9X285); test: HPLC and LC-MS/MS of the enzymatic product; format: biochemical
[2] = biological target: T1, AbHMPK (hydroxymethyl pyrimidine kinase / phosphomethylpyrimidine kinase); test: X-ray crystal structure; format: biochemical

T1 sequence (A0A0J9X285 whole entry): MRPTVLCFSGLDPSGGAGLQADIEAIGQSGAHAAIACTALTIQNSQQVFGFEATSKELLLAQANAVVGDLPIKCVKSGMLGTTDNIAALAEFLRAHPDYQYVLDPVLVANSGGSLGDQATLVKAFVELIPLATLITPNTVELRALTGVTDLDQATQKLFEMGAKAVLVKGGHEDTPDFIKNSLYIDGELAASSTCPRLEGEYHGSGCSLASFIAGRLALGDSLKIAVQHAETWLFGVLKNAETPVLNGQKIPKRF

| IC50 [2] [µM] | SMILES | HPLC and LC-MS/MS of the enzymatic product [1] |
| --- | --- | --- |
|  | Cc1ncc(COP(=O)(O)O)c(N)n1 [HMP-P] | the mass spectrometry analysis all confirm that this single product is HMP-P |
| 768 | Cc1ncc(COP(=O)(O)O)c(C=O)c1O [PLP, 4-Formyl-5-hydroxy-6-methylpyridin-3-yl) methyl dihydrogen phosphate] |  |
